{"source": "ChEMBL document CHEMBL4130451", "about": "“Design and Synthesis of N-Aryl Phenoxyethoxy Pyridinones as Highly Selective and CNS Penetrant mGlu3 NAMs” (ACS Med Chem Lett, 2017)", "key": {"Cytochrome P450 3A4": {"molecular_target": "Cytochrome P450 3A4 (Homo sapiens, UniProt P08684)", "sequence (P08684 whole entry)": "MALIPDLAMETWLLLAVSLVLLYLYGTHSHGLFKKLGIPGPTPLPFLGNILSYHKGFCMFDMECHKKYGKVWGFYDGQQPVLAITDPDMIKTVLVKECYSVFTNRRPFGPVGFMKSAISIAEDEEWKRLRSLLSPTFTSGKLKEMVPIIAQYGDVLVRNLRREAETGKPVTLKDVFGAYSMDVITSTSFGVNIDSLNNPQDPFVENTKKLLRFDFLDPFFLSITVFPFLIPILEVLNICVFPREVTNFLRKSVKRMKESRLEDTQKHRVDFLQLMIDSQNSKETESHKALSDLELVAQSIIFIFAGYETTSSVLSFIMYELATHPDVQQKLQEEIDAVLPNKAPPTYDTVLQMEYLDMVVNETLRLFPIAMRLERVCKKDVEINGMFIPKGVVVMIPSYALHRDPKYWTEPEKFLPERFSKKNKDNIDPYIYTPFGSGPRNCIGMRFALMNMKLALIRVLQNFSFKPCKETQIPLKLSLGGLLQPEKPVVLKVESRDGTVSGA", "experiment": "Inhibition of CYP3A4 in human liver microsomes using midazolam as substrate after 15 mins in presence of NADPH by LC/MS/MS analysis", "type": "ADME"}, "Cytochrome P450 2C9": {"molecular_target": "Cytochrome P450 2C9 (Homo sapiens, UniProt P11712)", "sequence (P11712 whole entry)": "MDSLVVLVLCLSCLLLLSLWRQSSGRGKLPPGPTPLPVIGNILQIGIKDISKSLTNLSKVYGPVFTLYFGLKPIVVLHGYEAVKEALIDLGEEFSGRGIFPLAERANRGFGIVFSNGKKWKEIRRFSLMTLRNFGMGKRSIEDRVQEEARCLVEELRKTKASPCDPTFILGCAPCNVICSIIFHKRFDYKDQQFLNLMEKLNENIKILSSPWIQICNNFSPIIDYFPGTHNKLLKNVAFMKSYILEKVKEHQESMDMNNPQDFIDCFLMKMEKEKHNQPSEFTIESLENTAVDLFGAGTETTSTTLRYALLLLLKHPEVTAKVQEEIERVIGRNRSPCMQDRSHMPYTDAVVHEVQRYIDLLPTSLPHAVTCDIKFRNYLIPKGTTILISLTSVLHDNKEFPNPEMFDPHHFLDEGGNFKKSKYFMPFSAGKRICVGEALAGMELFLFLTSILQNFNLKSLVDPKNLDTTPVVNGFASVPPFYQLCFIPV", "experiment": "Inhibition of CYP2C9 in human liver microsomes using diclofenac as substrate after 15 mins in presence of NADPH by LC/MS/MS analysis", "type": "ADME"}, "[1]": {"experiment": "Fraction unbound in rat plasma at 5 uM after 4 hrs by equilibrium dialysis based LC/MS/MS analysis", "type": "ADME, cell-free"}, "[2]": {"molecular_target": "Metabotropic glutamate receptor 8 (Rattus norvegicus) (UniProt P70579)", "sequence (P70579 whole entry)": "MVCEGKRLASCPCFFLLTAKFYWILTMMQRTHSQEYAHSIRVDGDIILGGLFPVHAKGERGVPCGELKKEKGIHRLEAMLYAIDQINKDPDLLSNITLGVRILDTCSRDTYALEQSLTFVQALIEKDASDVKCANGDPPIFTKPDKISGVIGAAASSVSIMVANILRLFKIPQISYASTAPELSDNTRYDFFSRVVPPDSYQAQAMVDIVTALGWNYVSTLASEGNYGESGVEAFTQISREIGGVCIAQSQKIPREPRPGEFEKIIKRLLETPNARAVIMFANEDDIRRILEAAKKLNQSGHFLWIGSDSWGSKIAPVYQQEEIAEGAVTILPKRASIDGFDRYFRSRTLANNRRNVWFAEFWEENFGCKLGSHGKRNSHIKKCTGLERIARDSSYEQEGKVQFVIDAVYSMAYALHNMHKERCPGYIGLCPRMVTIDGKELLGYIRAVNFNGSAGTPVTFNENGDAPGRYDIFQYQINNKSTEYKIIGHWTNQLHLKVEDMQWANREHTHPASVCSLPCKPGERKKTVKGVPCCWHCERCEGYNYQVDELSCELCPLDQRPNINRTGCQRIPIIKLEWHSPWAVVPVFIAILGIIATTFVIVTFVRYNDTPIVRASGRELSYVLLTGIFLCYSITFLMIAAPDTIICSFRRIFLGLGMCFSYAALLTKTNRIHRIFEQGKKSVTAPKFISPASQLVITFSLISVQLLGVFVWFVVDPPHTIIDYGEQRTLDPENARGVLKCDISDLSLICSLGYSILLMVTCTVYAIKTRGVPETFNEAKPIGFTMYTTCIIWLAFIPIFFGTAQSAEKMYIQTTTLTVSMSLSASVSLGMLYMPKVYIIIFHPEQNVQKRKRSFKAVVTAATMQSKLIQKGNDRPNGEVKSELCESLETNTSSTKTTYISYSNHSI", "experiment": "Negative allosteric modulation of rat mGlu8 receptor expressed in HEK/GIRK cells assessed as inhibition of glutamate induced-calcium mobilization preincubated for 2.3 mins followed by glutamate addition measured for 2.6 mins by Fluo-4 AM dye based fluorescence assay", "type": "functional, cell-based"}, "[3]": {"experiment": "Drug uptake in Harlan CD-1 mouse brain at 3 mg/kg, ip by LC/MS-MS analysis", "type": "ADME, organism-based", "details": "in vivo, read-out: Drug uptake"}, "[4]": {"molecular_target": "Adenosine receptor A2a (Homo sapiens) (UniProt P29274)", "sequence (P29274 whole entry)": "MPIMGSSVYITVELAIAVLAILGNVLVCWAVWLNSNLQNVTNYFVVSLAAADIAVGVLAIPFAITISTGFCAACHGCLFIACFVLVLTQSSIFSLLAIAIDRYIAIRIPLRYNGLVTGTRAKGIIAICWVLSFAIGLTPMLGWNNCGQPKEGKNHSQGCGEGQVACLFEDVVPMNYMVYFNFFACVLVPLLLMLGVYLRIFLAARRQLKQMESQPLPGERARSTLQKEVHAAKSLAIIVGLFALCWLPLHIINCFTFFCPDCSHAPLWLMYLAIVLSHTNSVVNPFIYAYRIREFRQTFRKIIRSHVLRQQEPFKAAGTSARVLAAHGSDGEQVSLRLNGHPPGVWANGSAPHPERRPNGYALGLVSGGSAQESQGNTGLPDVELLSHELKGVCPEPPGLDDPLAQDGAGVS", "experiment": "Inhibition of human adenosine A2a receptor at 10 uM relative to control"}, "[5]": {"molecular_target": "Alpha-1B adrenergic receptor (Rattus norvegicus) (UniProt P15823)", "experiment": "Inhibition of rat adrenergic alpha 1B receptor at 10 uM relative to control"}, "[6]": {"molecular_target": "Androgen receptor (Rattus norvegicus) (UniProt P15207)", "sequence (P15207 whole entry S389L)": "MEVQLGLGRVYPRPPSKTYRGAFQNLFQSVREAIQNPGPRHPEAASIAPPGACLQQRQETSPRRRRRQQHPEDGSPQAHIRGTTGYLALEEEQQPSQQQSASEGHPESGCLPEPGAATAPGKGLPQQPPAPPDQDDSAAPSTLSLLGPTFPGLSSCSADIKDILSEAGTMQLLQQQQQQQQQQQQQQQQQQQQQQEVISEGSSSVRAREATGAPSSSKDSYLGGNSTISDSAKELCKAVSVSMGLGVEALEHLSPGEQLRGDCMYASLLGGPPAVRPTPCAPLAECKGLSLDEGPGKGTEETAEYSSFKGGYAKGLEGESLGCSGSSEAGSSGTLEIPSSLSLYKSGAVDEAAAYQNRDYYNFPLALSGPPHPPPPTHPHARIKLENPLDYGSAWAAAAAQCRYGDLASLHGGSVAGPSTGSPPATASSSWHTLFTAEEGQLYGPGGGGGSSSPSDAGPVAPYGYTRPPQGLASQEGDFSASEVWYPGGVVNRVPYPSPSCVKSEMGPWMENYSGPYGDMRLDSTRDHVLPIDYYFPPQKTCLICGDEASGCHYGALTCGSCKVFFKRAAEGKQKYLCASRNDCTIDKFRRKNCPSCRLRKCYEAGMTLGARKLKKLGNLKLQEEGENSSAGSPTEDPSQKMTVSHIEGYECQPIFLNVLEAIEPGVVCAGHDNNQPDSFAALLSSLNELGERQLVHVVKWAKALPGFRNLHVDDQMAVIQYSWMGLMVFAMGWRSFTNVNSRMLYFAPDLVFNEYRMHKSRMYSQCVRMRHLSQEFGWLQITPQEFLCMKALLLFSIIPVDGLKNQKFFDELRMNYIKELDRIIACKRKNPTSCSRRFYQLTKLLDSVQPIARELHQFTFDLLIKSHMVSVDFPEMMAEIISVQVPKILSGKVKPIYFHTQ", "experiment": "Inhibition of rat androgen receptor at 10 uM relative to control"}, "[7]": {"molecular_target": "D(3) dopamine receptor (Homo sapiens) (UniProt P35462)", "sequence (P35462 whole entry)": "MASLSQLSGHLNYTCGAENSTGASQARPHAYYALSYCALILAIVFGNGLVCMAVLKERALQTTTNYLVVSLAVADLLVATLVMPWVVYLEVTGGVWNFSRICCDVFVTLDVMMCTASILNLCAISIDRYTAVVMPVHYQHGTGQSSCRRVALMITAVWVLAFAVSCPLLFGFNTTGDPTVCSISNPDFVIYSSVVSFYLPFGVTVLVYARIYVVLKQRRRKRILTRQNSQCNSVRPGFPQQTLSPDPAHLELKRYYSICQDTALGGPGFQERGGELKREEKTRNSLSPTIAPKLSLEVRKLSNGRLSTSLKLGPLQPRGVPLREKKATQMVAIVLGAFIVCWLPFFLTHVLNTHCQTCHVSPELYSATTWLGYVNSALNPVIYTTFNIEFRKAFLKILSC", "experiment": "Inhibition of human dopamine D3 receptor at 10 uM relative to control"}, "Homo sapiens [8]": {"organism": "Homo sapiens", "experiment": "Inhibition of human dopamine D4.2 receptor at 10 uM relative to control"}, "[9]": {"molecular_target": "Estrogen receptor (Homo sapiens) (UniProt P03372)", "sequence (P03372 whole entry)": "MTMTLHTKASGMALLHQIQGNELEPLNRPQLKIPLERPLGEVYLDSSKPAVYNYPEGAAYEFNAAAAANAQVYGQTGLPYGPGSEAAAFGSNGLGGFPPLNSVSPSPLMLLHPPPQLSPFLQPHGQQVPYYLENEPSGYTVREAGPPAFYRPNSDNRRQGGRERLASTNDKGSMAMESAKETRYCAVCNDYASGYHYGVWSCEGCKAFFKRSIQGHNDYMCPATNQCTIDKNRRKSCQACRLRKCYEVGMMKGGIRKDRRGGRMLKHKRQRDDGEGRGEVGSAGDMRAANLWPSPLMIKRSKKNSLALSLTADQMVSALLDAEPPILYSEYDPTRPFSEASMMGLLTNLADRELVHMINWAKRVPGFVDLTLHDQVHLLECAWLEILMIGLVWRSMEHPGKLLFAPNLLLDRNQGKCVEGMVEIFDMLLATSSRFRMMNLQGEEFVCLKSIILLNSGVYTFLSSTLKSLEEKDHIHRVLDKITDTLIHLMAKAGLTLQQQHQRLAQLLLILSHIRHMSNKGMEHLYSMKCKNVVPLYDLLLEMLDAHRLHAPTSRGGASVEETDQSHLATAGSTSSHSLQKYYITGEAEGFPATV", "experiment": "Inhibition of human ERalpha receptor at 10 uM relative to control"}, "Rattus norvegicus [10]": {"organism": "Rattus norvegicus", "experiment": "Inhibition of rat central GABA-A receptor flunitrazepam site at 10 uM relative to control"}, "[11]": {"molecular_target": "Interleukin-1 receptor type 1 (Mus musculus) (UniProt P13504)", "sequence (P13504 whole entry)": "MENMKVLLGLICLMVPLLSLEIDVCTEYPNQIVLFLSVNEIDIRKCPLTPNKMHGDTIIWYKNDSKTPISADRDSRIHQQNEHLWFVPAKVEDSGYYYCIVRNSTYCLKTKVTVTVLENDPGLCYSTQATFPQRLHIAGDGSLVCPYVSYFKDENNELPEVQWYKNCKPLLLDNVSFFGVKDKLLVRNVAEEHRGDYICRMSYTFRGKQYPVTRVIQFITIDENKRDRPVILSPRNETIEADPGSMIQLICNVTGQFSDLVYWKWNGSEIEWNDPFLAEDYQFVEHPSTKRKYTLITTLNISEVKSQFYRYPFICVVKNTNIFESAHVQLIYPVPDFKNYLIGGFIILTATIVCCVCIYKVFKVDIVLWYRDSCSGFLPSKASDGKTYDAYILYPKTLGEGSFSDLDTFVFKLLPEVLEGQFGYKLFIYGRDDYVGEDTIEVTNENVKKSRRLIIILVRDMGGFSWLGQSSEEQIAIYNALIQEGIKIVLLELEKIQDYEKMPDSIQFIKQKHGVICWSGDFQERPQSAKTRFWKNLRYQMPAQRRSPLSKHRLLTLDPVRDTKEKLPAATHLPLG", "experiment": "Inhibition of mouse IL1 receptor at 10 uM relative to control"}, "[12]": {"molecular_target": "Muscarinic acetylcholine receptor M3 (Homo sapiens) (UniProt P20309)", "experiment": "Inhibition of human muscarinic M3 receptor at 10 uM relative to control"}, "Homo sapiens [13]": {"organism": "Homo sapiens", "experiment": "Inhibition of human nicotinic acetylcholine receptor at 10 uM relative to control"}, "Rattus norvegicus [14]": {"organism": "Rattus norvegicus", "experiment": "Inhibition of rat thyroid hormone receptor at 10 uM relative to control"}}, "note": "Activity calls are given as the source filed them. No cut-off for these calls is given here.", "data": [{"smiles": "C[C@@H](COc1ccn(-c2ccc(F)cc2)c(=O)c1)Oc1ccccc1", "values": [{"measurement": "IC50", "setting": "Cytochrome P450 3A4", "result": "> 30", "unit": "µM"}, {"measurement": "IC50", "setting": "Cytochrome P450 2C9", "result": "> 30", "unit": "µM"}, {"measurement": "fraction unbound at 4 h, 5 µM", "setting": "[1]", "result": 0.18}, {"measurement": "inhibition", "setting": "[2]", "result": "inactive"}, {"measurement": "concentration", "setting": "[3]", "result": 1200, "unit": "nM"}, {"measurement": "inhibition", "setting": "[4]", "result": "> 50", "unit": "%"}, {"measurement": "inhibition", "setting": "[5]", "result": "> 50", "unit": "%"}, {"measurement": "inhibition", "setting": "[6]", "result": "> 50", "unit": "%"}, {"measurement": "inhibition", "setting": "[7]", "result": "> 50", "unit": "%"}, {"measurement": "inhibition", "setting": "Homo sapiens [8]", "result": "> 50", "unit": "%"}, {"measurement": "inhibition", "setting": "[9]", "result": "> 50", "unit": "%"}, {"measurement": "inhibition", "setting": "Rattus norvegicus [10]", "result": "> 50", "unit": "%"}, {"measurement": "inhibition", "setting": "[11]", "result": "> 50", "unit": "%"}, {"measurement": "inhibition", "setting": "[12]", "result": "> 50", "unit": "%"}, {"measurement": "inhibition", "setting": "Homo sapiens [13]", "result": "> 50", "unit": "%"}, {"measurement": "inhibition", "setting": "Rattus norvegicus [14]", "result": "> 50", "unit": "%"}]}]}
